Assay results taken from publication PMC8274517, “Diaryl azo derivatives as anti-diabetic and antimicrobial agents: synthesis, in vitro, kinetic and docking studies” (Journal of Enzyme Inhibition and Medicinal Chemistry, 2021).
≈ marks a conversion by molar mass, not a printed value. Entries after “also recorded” stand apart in the source; their conditions may differ.

Key:
α-glucosidase [1] = assay: In vitro α-glucosidase inhibition assay (pNPG substrate); assay type: biochemical, Saccharomyces Cerevisiae; details: for IC50: means ± SEM of triplicate
Protocol: The α-glucosidase inhibition assay was performed as described previously. In summary, the stock solution of the enzyme from Saccharomyces Cerevisiae (0.2 U/mL) was prepared in 0.05 M sodium phosphate buffer pH 6.8. […] After incubation, 10 µL of the substrate, p-nitrophenyl α-D-glucopyranoside (pNPG, 5 mM solution in 0.05 M phosphate buffer) was added to the aboveprepared mixture and incubated again under the same experimental conditions. The reaction was stopped with the addition of 0.1 M Na2CO3 and OD405 was taken by a 96-well ELISA reader. The experiment was performed in triplicate.

[2] = test system: screened pathogens (S. aureus, P. aeruginosa, E. coli and P. vulgaris); assay: Antibacterial activity, average MIC over screened pathogens; assay type: cell-based
Protocol: The prepared azo derivatives were screened for their antibacterial activity against six bacterial strains obtained from hospital isolates i.e. gram positive (S. aureus, S. aureus (DR)) and gram-negative (E. coli, P. aeruginosa, P. aeruginosa (DR), P. vulgaris). […] The antibacterial evaluation was done by agar disc diffusion method[39]^,[40] and MIC was determined. In summary, a 48-h old inoculum having ∼0.48 OD600, of the above-mentioned bacterial strains was spread on the solidified trypticase soy agar media and Whatman no. 1 filter paper discs (5 mm in diameter) soaked with the title compounds (10 µL/disc of 10 mg/mL) were placed on the plates.

P. aeruginosa (DS) = assay: Antibacterial activity, minimum inhibitory concentration; assay type: cell-based; set-up: key: R: resistant; S: sensitive
Protocol: (§1) The prepared azo derivatives were screened for their antibacterial activity against six bacterial strains obtained from hospital isolates i.e. gram positive (S. aureus, S. aureus (DR)) and gram-negative (E. coli, P. aeruginosa, P. aeruginosa (DR), P. vulgaris). All the strains were confirmed by biochemical identification and drug susceptibility methods. The antibacterial evaluation was done by agar disc diffusion method[39]^,[40] and MIC was determined. In summary, a 48-h old inoculum having ∼0.48 OD600, of the above-mentioned bacterial strains was spread on the solidified trypticase soy agar media and Whatman no. 1 filter paper discs (5 mm in diameter) soaked with the title compounds (10 µL/disc of 10 mg/mL) were placed on the plates. Ampicillin and moxifloxacin were used as positive controls and DMSO as negative control respectively.

P. aeruginosa (DR) = assay: as above; assay type: cell-based; set-up: key: R: resistant; S: sensitive
Protocol: as §1

S. aureus (DS) [3] = assay: as above; assay type: cell-based; set-up: key: R: resistant; S: sensitive
Protocol: as §1

S. aureus (DR) = assay: as above; assay type: cell-based; set-up: key: R: resistant; S: sensitive
Protocol: as §1

E. coli = assay: as above; assay type: cell-based; set-up: key: R: resistant; S: sensitive
Protocol: as §1

P. vulgaris = assay: as above; assay type: cell-based; set-up: key: R: resistant; S: sensitive
Protocol: as §1

S. aureus (DS) [4] = assay: Antibiofilm assay (crystal violet); assay type: cell-based; details: 0.5 mg/mL
Protocol: The antibiofilm activity of the synthesised azo derivatives was assessed by microtitre plate-based crystal violet method[44] against respective bacterial strains i.e. gram-positive (S. aureus, S. aureus (DR)) and gram-negative (P. aeruginosa, P. aeruginosa (DR)). In brief, 10 µL bacterial suspension, 100 µL trypticase soy broth and 10 µL (10 mg/mL) of test compounds were added in the wells in duplicates and incubated at 37 °C overnight. Ampicillin and moxifloxacin were used as positive controls. After the aspiration of planktonic cells, the biofilm was fixed with 99% methanol. The wells were then washed with 0.1 M sterile PBS (pH = 6.9) thrice and air-dried. Then, 200 µL of crystal violet solution (2%) was added to all wells. After 15 min, the excess of the crystal violet dye was removed and the wells were washed again with PBS. Then, the cell-bound crystal violet was dissolved in 33% acetic acid. The biofilm growth was quantified in terms of OD575 nm using an ELISA plate reader and biofilm hydrolysis was calculated by % inhibition formula.

α-glucosidase [5] = assay: Kinetic analysis and inhibition mechanism of α-glucosidase inhibition; assay type: biochemical, Saccharomyces Cerevisiae
Protocol: The potential inhibitor with concentrations 0.00, 0.062, 0.125, 0.25, 0.5 mM was selected for kinetic studies. The substrate (pNPG) concentration was optimised from 5 to 40 mM in all kinetic studies. Pre-incubation and measurement time was the same as discussed in α-glucosidase inhibition assay. The assay was continuously monitored at 405 nm for 5 min at 30 s intervals in the microplate reader after the addition of the enzyme. The inhibition type on the enzyme was assayed by Lineweaver–Burk plots of the inverse of velocities (1/V) versus the inverse of substrate concentration 1/[S] mM^−1, and the inhibition constant Ki was determined by two ways (Dixon plot of 1/V versus inhibitor concentrations) as well as secondary replot of slope versus inhibitor concentrations from Lineweaver–Burk plot.
The plot of the remaining enzyme activity versus the concentrations of the enzyme at different inhibitor concentrations (0.00, 0.062, 0.125, 0.25 and 0.5 mM) was calculated.

Row | Compound | % Inhibition (α-glucosidase [1]; 15.62 µg/mL) | % Inhibition (α-glucosidase [1]; 31.2 µg/mL) | % Inhibition (α-glucosidase [1]; 125 µg/mL) | % Inhibition (α-glucosidase [1]; 250 µg/mL) | IC50 (α-glucosidase [1]) | MIC (average value) [2] | Minimum inhibitory concentration: sensitive/resistant (P. aeruginosa (DS); 125 µg/200 µL) | Minimum inhibitory concentration: sensitive/resistant (P. aeruginosa (DS); 250 µg/200 µL) | Minimum inhibitory concentration: sensitive/resistant (P. aeruginosa (DR); 125 µg/200 µL) | Minimum inhibitory concentration: sensitive/resistant (P. aeruginosa (DR); 250 µg/200 µL) | Minimum inhibitory concentration: sensitive/resistant (S. aureus (DS) [3]; 125 µg/200 µL) | Minimum inhibitory concentration: sensitive/resistant (S. aureus (DS) [3]; 250 µg/200 µL) | Minimum inhibitory concentration: sensitive/resistant (S. aureus (DR); 125 µg/200 µL) | Minimum inhibitory concentration: sensitive/resistant (S. aureus (DR); 250 µg/200 µL) | Minimum inhibitory concentration: sensitive/resistant (E. coli; 125 µg/200 µL) | Minimum inhibitory concentration: sensitive/resistant (E. coli; 250 µg/200 µL) | Minimum inhibitory concentration: sensitive/resistant (P. vulgaris; 125 µg/200 µL) | Minimum inhibitory concentration: sensitive/resistant (P. vulgaris; 250 µg/200 µL) | also measured
1 | (E)-4-(p-tolyldiazenyl)benzene-1,3-diol [TR-6] | 22% | 38% | 63% | 87% | 53.7 ± 3.2 µg/mL | 125 µg/200 µL | S | S | R | R | S | S | S | S | R | S | S | S | –
2 | O=[N+]([O-])c1ccc(/N=N/c2ccc(O)cc2O)cc1 [TR-1, (E)-4-((4-nitrophenyl)diazenyl)benzene-1,3-diol] | 49% | 68% | 88% | 95% | 15.70 ± 1.3 µg/mL (≈ 60.6 µM) | 125 µg/200 µL | R | R | S | S | S | S | R | R | S | S | S | S | biofilm inhibition (S. aureus (DS) [4]): greater than 70%; Ki (α-glucosidase [5]; EI dissociation constant, Dixon plot and secondary replot): 220 µM; Inhibition type (α-glucosidase [5]; Lineweaver–Burk plot): Non-competitive; Km (α-glucosidase [5]; inhibitor dose 0.062 mM): 20 mM; Vmax (α-glucosidase [5]; inhibitor dose 0.062 mM): 0.166 ΔA/S; Km (α-glucosidase [5]; inhibitor dose 0.125 mM): 20 mM; Vmax (α-glucosidase [5]; inhibitor dose 0.125 mM): 0.125 ΔA/S; Km (α-glucosidase [5]; inhibitor dose 0.25 mM): 20 mM; Vmax (α-glucosidase [5]; inhibitor dose 0.25 mM): 0.090 ΔA/S; Km (α-glucosidase [5]; inhibitor dose 0.50 mM): 20 mM; Vmax (α-glucosidase [5]; inhibitor dose 0.50 mM): 0.071 ΔA/S; Inhibition (reversibility) (α-glucosidase [5]; remaining enzyme activity versus enzyme concentration): reversibly; also recorded: reversible
3 | (E)-4-(p-tolyldiazenyl)naphthalen-1-ol [TR-4] | 7% | 13% | 35% | 43% | – | 125 µg/200 µL | S | S | S | S | S | S | S | S | R | R | S | S | –
4 | O=[N+]([O-])c1ccc(/N=N/c2ccc(O)c3ccccc23)cc1 [TR-2, (E)-4-((4-nitrophenyl)diazenyl)naphthalen-1-ol] | 16% | 30% | 55% | 60% | 110.2 ± 7.8 µg/mL (≈ 376 µM) | – | R | S | R | R | R | R | S | S | R | S | R | R | –
5 | 4-((2-chloropyridin-3-yl)diazenyl)naphthalen-2-ol [TR-9] | 22% | 39% | 63% | 78% | 54.4 ± 3.3 µg/mL | – | R | S | R | R | R | R | S | S | R | R | R | R | –
6 | C[C@H]1O[C@H](O[C@H]2[C@H](O)[C@@H](O)[C@@H](O[C@H]3[C@H](O)[C@@H](O)C(O)O[C@@H]3CO)O[C@@H]2CO)[C@H](O)[C@@H](O)[C@@H]1N[C@H]1C=C(CO)[C@@H](O)[C@H](O)[C@H]1O (some centres unmarked) [Acarbose, reference compound] | 40% | 62% | 85% | 92% | – | – | – | – | – | – | – | – | – | – | – | – | – | – | –
7 | COc1c(N2C[C@@H]3CCCN[C@@H]3C2)c(F)cc2c(=O)c(C(=O)O)cn(C3CC3)c12 [Moxifloxacin, reference compound] | – | – | – | – | – | – | – | – | S | S | – | – | S | S | – | – | – | – | –
8 | O=[N+]([O-])c1ccc(/N=N/c2c(O)ccc3ccccc23)cc1 [TR-3, (E)-1-((4-nitrophenyl)diazenyl)naphthalen-2-ol] | 12% | 25% | 54% | – | 116.9 ± 8.6 µg/mL (≈ 399 µM) | – | R | S | R | R | R | R | R | R | R | R | R | R | biofilm inhibition (S. aureus (DS) [4]): greater than 70%; melting point: 245 to 252 °C
9 | CC1(C)S[C@@H]2[C@H](NC(=O)[C@H](N)c3ccccc3)C(=O)N2[C@H]1C(=O)O [Ampicillin, reference compound] | – | – | – | – | – | 62.5 µg/200 µL | S | S | – | – | S | S | – | – | S | S | S | S | –
